Data taken from PubChem BioAssay (NCI).
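Assay format: 96-well plates, 48-hour exposure. GI50 marks 50% less growth. TGI is the concentration that stops growth completely.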

Assays:
Assay in all cases: NCI anticancer screen, dose series, 48 h
T-47D breast = system: T-47D breast
HT29 colon = system: HT29 colon
SR leukemia = system: SR leukemia
SF-539 CNS = system: SF-539 CNS
U251 CNS = system: U251 CNS
SF-295 CNS = system: SF-295 CNS
RXF 393 renal = system: RXF 393 renal
SK-MEL-28 melanoma = system: SK-MEL-28 melanoma
LXFL 529 NSCLC = system: LXFL 529 NSCLC
M19-MEL melanoma = system: M19-MEL melanoma

| Structure (SMILES) | GI50 (T-47D breast) | TGI (T-47D breast) | GI50 (HT29 colon) | TGI (HT29 colon) | GI50 (SR leukemia) | TGI (SR leukemia) | GI50 (SF-539 CNS) | TGI (SF-539 CNS) | GI50 (U251 CNS) | TGI (U251 CNS) | GI50 (SF-295 CNS) | TGI (SF-295 CNS) | GI50 (RXF 393 renal) | TGI (RXF 393 renal) | GI50 (SK-MEL-28 melanoma) | TGI (SK-MEL-28 melanoma) | TGI (LXFL 529 NSCLC) | TGI (M19-MEL melanoma) |
| --- | --- | --- | --- | --- | --- | --- | --- | --- | --- | --- | --- | --- | --- | --- | --- | --- | --- | --- |
| O=C(Nc1cccc(-n2cc(-c3ccncc3)c(-c3cc(O)cc(Cl)c3)n2)c1)c1ccc(N2CCOCC2)c(C(F)(F)F)c1 | 3.81 µM | > 100 µM | 3.03 µM | 11.3 µM | 0.338 µM | 1.83 µM | 1.44 µM | 4.47 µM | 1.4 µM | 6.3 µM | 0.614 µM | 2.78 µM | 0.303 µM | 1.9 µM | 0.759 µM | 3.27 µM |  |  |
| CCNc1nc(O)c(/C=C2\C=Nc3ncccc32)s1 | 2.02 µM | 7.62 µM | 4.44 µM | > 100 µM | 1.6 µM | > 100 µM | 1.51 µM | 3.7 µM | 2.6 µM | 8.24 µM | 3.45 µM | > 100 µM | 2.05 µM | 4.29 µM | 2.72 µM | 13.8 µM |  |  |
| O=C1/C(=C\c2ccccc2)CN(C(=O)CCN2CCCCC2)C/C1=C/c1ccccc1 |  |  |  | 2.03 µM |  | 14.5 µM |  | 5.52 µM |  | 1.86 µM |  | 3.16 µM |  | 3.53 µM |  | 5.69 µM | 3.05 µM | 1.78 µM |
| COC(=O)C1C(=O)O[C@@H](c2ccc3c(c2)OCO3)C1C(=O)OC (mixture of isomers) |  |  |  | > 100 µM |  | > 100 µM |  | > 100 µM |  | > 100 µM |  | > 100 µM |  | > 100 µM |  | > 100 µM | > 100 µM | > 100 µM |
| NNC(=O)C(=O)N/N=C1/CCCC1C(=O)CCC(=O)Nc1ccc(Cl)cc1 (centres undefined) |  |  |  | > 100 µM |  | > 100 µM |  | > 100 µM |  | > 100 µM |  | > 100 µM |  | > 100 µM |  | > 100 µM | > 100 µM | > 100 µM |
| Cc1ccc(O)cc1Nc1ccnc2ccc(S(C)(=O)=O)cc12 | 1.59 µM | 24.3 µM | 0.433 µM | 2.92 µM | > 25 µM | > 25 µM | 1.08 µM | 7.62 µM | 5.22 µM | > 25 µM | 3.34 µM | > 25 µM | 0.381 µM | 1.99 µM | 1.98 µM | > 25 µM |  |  |
| CCOC(=O)c1nc(C)oc1C(F)(F)F |  |  |  | > 100 µM |  | > 100 µM |  | > 100 µM |  | > 100 µM |  | > 100 µM |  | > 100 µM |  | > 100 µM | > 100 µM | > 100 µM |
| O=C(/C=C/C12c3ccccc3C(c3ccccc31)C1C(=O)NC(=O)C12)c1ccccn1 (centres undefined) | 1.73 µM | 5.26 µM | 1.86 µM | 4.56 µM | 0.782 µM | 7.31 µM | 2.04 µM | 4.65 µM | 1.4 µM | 2.74 µM | 1.61 µM | 3.49 µM | 1.61 µM | 3.12 µM | 2.03 µM | 3.86 µM |  |  |
| COc1nc2c(c(O)c(C)c(=O)n2OC2OCC(OC(C)=O)C(OC(C)=O)C2OC(C)=O)c(=O)n1C (centres undefined) |  |  |  | > 100 µM |  | > 100 µM |  | > 100 µM |  | > 100 µM |  | > 100 µM |  | > 100 µM |  | > 100 µM | > 100 µM | > 100 µM |
| Nc1nc2c(c3cnccc13)C(c1ccc(Cl)c(Cl)c1)Cc1cnccc1-2 (centres undefined) | 0.333 µM | 18.2 µM | 0.37 µM | 3.31 µM | 0.384 µM | > 100 µM | 0.486 µM | 4.29 µM | 0.375 µM | 2.6 µM | 0.394 µM | 4.76 µM | 0.522 µM | 3.48 µM | 2.85 µM | 19 µM |  |  |
| c1ccc(-c2[nH]ncc2-c2ccnc(-c3ccc(OCCn4ccnc4)cc3)c2)nc1 | 5.68 µM | > 25 µM | > 25 µM | > 25 µM | > 25 µM | > 25 µM | > 25 µM | > 25 µM | > 25 µM | > 25 µM | > 25 µM | > 25 µM | > 25 µM | > 25 µM | > 25 µM | > 25 µM |  |  |
| Cc1cccc(NC(=O)c2sc3nc4c(cc3c2N)C(=O)CCC4)c1 | 0.397 µM | > 100 µM | 0.223 µM | > 20.1 µM | 0.445 µM | > 100 µM | 0.199 µM | 0.616 µM | 0.316 µM | > 34.6 µM | 0.194 µM | > 47.6 µM | 0.252 µM |  | 1.53 µM | > 62.3 µM |  |  |
| COc1cc(CNc2nc3cc(N)cc(N)c3nc2-c2ccccc2)cc(OC)c1 | 1.67 µM | 4.57 µM | 8.17 µM | 44.4 µM | 3.84 µM | > 100 µM | 5.29 µM | 21.4 µM | 5.08 µM | > 100 µM | 14.2 µM | 35.1 µM | 6.09 µM | 58.5 µM | 1.76 µM | 8.62 µM |  |  |
| CC1=C(C(=O)Nc2ccccc2)C(c2ccc(N(C)C)cc2)C(C(=O)Nc2ccccc2)=C(C)N1 |  | > 93.6 µM |  | > 75.8 µM |  | > 92.8 µM |  | > 100 µM |  | > 72.4 µM |  | 50.2 µM |  | > 100 µM |  | 36.6 µM | > 100 µM | > 28.9 µM |
| C[C@]12Cc3cn[nH]c3C(=O)C1CC[C@@H]1C2CC[C@@]2(C)C1CC[C@@H]2O (some centres undefined) |  |  |  | > 100 µM |  |  |  | > 100 µM |  | > 100 µM |  | > 100 µM |  | > 100 µM |  | > 100 µM | > 100 µM |  |
